Test results from EP4810040A2, “INHIBITORS OF APOL1 AND METHODS OF USING SAME” (priority 2020, dated 2022).
Like-named read-outs stand apart in the source and are kept apart here.

Target: T1, APOL1 G1 (Homo sapiens, UniProt O14791, I384M/S342G)
T1 sequence (O14791 28-398 S342G/I384M): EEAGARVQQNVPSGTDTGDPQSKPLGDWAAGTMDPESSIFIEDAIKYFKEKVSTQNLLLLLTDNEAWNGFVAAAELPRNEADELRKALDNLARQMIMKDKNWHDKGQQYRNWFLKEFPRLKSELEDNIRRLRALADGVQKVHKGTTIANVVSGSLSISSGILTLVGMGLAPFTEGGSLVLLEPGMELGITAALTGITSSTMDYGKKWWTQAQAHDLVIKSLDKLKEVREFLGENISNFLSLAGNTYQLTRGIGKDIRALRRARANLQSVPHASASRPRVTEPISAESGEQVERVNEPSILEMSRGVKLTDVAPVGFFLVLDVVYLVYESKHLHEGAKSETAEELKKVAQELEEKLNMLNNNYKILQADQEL
Assay: MultiTox-Fluor Multiplex Cytotoxicity Assay, tet-inducible APOL1 G1 T-REx-HEK293 cells
Format: cell-based
Design: expressed in transfected cells; host or cells: T-REx HEK293, clone G1 DC3.25 (pAAVS1-Puro-APOL1 G1)
Settings: for Emax: read-out: Multi-Tox Assay Max Activity (%)
How it was run: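 Over 24 h at 37 °C, compounds (10-point 3-fold series from 10 µM, duplicate) were co-incubated with 50 ng/mL tetracycline inducing APOL1 G1 in T-REx-HEK293 cells. Viability/cytotoxicity measured by MultiTox-Fluor as dead-to-live fluorescence ratio, expressed as percent of control between uninduced and induced wells and fitted.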

[1] = HEK293, Multi-Tox Assay, APOL1 variant (G0/G1/G2) of the HEK293 cells not given, read-out: Multi-Tox Assay IC90
[2] = Multi-Tox Assay, APOL1 variant not given

## COc1cccc([C@@H]2C[C@]3(C[C@H](C)N2)OCCc2cc(Cl)sc23)c1O (racemic) [Compound 166]
[1]
  IC90: > 500 nM
[2]
  Multi-Tox Assay Max Activity (%): 96.7%

## C[C@H]1C[C@@]2(C[C@@H](c3cn(Cc4ccc(O)cc4)nn3)N1)OCC(F)(F)c1cc(Cl)sc12 [Compound 302]
[1]
  IC90: 50 to 500 nM
[2]
  Multi-Tox Assay Max Activity (%): 94.0%

## CNC(=O)c1cccc(C2CC3(CC(C)N2)OCCc2cc(Cl)sc23)c1 (stereo not drawn) [Compound 27]
[1]
  IC90: < 50 nM
[2]
  Multi-Tox Assay Max Activity (%): 100.3%

## COc1ccc([C@@H]2C[C@]3(C[C@H](C)N2)OCCc2cc(Cl)sc23)cn1 (racemic) [Compound 49]
[1]
  IC90: < 50 nM
[2]
  Emax: 99.7%

## C[C@H]1C[C@@]2(C[C@@H](c3cn(CCC4CCCOC4)nn3)N1)OC[C@@H](O)c1cc(Cl)sc12 (stereo partly drawn) [Compound 273]
[1]
  IC90: 50 to 500 nM
[2]
  Multi-Tox Assay Max Activity (%): 101.0%

## COCC1(Cn2cc([C@@H]3C[C@]4(C[C@H](C)N3)OC[C@@H](O)c3cc(Cl)sc34)nn2)CC1 [Compound 270]
[1]
  IC90: > 500 nM
[2]
  Multi-Tox Assay Max Activity (%): 93.0%

## Cc1nc([C@@H]2C[C@]3(C[C@H](C)N2)OCCc2cc(Cl)sc23)oc1C (racemic) [Compound 144]
[1]
  IC90: > 500 nM
[2]
  Multi-Tox Assay Max Activity (%): 98.0%

## CCn1cc(Cn2cc([C@@H]3C[C@]4(C[C@H](C)N3)OCC(F)(F)c3cc(Cl)sc34)nn2)cn1 [Compound 330]
[1]
  IC90: 50 to 500 nM

## COCCn1cc([C@@H]2C[C@]3(C[C@H](C)N2)OC[C@@H](O)c2cc(Cl)sc23)nn1 [Compound 282]
[1]
  IC90: 50 to 500 nM

## C[C@H]1C[C@@]2(C[C@@H](c3cn(CC4(F)CCOCC4)nn3)N1)OCC(F)(F)c1cc(Cl)sc12 [Compound 329]
[1]
  IC90: > 500 nM
[2]
  Multi-Tox Assay Max Activity (%): 90.0%

## C[C@H]1C[C@@]2(C[C@@H](c3ccc(O)nn3)N1)OCCc1cc(Cl)sc12 [Compound 86]
[1]
  IC90: < 50 nM
[2]
  Emax: 99.5%

## C[C@H]1C[C@@]2(C[C@@H](c3cn(Cc4cnc5cnccn45)nn3)N1)OC[C@@H](O)c1cc(Cl)sc12 [Compound 243]
[1]
  IC90: 50 to 500 nM
[2]
  Multi-Tox Assay Max Activity (%): 98.0%

## C[C@H]1C[C@@]2(C[C@@H](c3cnc(C4CCOCC4)o3)N1)OCCc1cc(Cl)sc12 (racemic) [Compound 140]
[1]
  IC90: 50 to 500 nM
[2]
  Multi-Tox Assay Max Activity (%): 99.7%

## COc1ccc([C@@H]2C[C@]3(C[C@H](C)N2)OCCc2cc(Cl)sc23)c(F)c1 (racemic) [Compound 44]
[1]
  IC90: < 50 nM
[2]
  Multi-Tox Assay Max Activity (%): 99.5%

## COc1ccc(Cn2cc([C@@H]3C[C@]4(C[C@H](C)N3)OCC(F)(F)c3cc(Cl)sc34)nn2)cc1F [Compound 362]
Multi-Tox Assay, APOL1 variant (G0/G1/G2) not stated in Table 46, read-out: Multi-Tox Assay IC90
  IC90: 50 to 500 nM
Multi-Tox Assay, APOL1 variant not stated in Table 46
  Multi-Tox Assay Max Activity (%): 98.0%
Multi-Tox Assay, IP50 = IC50 for cell proliferation, APOL1 variant not stated in Table 46
  IC50: 50 to 500 nM

## Cc1cc(C)nc(CCn2cc([C@@H]3C[C@]4(C[C@H](C)N3)OCC(F)(F)c3cc(Cl)sc34)nn2)c1 [Compound 351]
[1]
  IC90: 50 to 500 nM
[2]
  Multi-Tox Assay Max Activity (%): 98.0%

## COCC(O)Cn1cc([C@@H]2C[C@]3(C[C@H](C)N2)OC[C@@H](O)c2cc(Cl)sc23)nn1 (stereo partly drawn) [Compound 226]
[1]
  IC90: 50 to 500 nM
[2]
  Multi-Tox Assay Max Activity (%): 100.0%

## Cc1nccnc1[C@@H]1C[C@]2(C[C@H](C)N1)OCCc1cc(Cl)sc12 (racemic) [Compound 164]
[1]
  IC90: > 500 nM
[2]
  Multi-Tox Assay Max Activity (%): 91.7%

## C[C@H]1C[C@@]2(C[C@@H](c3cn(Cc4ccc(C#N)nc4)nn3)N1)OC[C@@H](O)c1cc(Cl)sc12 [Compound 236]
[1]
  IC90: 50 to 500 nM
[2]
  Multi-Tox Assay Max Activity (%): 100.0%

## C[C@H]1C[C@@]2(C[C@@H](c3cn(Cc4cccc(O)c4)nn3)N1)OC[C@@H](O)c1cc(Cl)sc12 [Compound 279]
[1]
  IC90: 50 to 500 nM
[2]
  Multi-Tox Assay Max Activity (%): 97.0%

## Cc1cc(Cn2cc([C@@H]3C[C@]4(C[C@H](C)N3)OC[C@@H](O)c3cc(Cl)sc34)nn2)ccn1 [Compound 296]
[1]
  IC90: 50 to 500 nM

## C[C@@H]1C[C@]2(C[C@H](C)N1)OCC(O)c1cc(Cl)sc12 (mixture of isomers) [Compound 205, (2R,6S)-2-chloro-2',6'-dimethyl-spiro[4,5-dihydrothieno[2,3-c]pyran-7,4'-piperidine]-4-ol]
HEK293, read-out: Multi-Tox Assay IC90 (nM)
  IC90: 50 to 500 nM
  Emax: 99.3%

## C[C@H]1C[C@@]2(C[C@@H](c3ccccc3)N1)OCCc1cc(Cl)sc12 (racemic) [Compound 81]
[1]
  IC90: < 50 nM
[2]
  Emax: 99.7%

## C[C@H]1C[C@@]2(C[C@@H](c3cn(CC4CCOCC4)nn3)N1)OCC(F)(F)c1cc(Cl)sc12 [Compound 309]
[1]
  IC90: 50 to 500 nM
[2]
  Multi-Tox Assay Max Activity (%): 97.0%

## CC1CC2(CC(c3cc(F)cc(C#N)c3)N1)OCCc1cc(Cl)sc12 (stereo not drawn) [Compound 33]
[1]
  IC90: < 50 nM
[2]
  Multi-Tox Assay Max Activity (%): 98.7%

## C[C@H]1C[C@@]2(C[C@@H](c3ccc[nH]c3=O)N1)OCCc1cc(Cl)sc12 (racemic) [Compound 121]
[1]
  IC90: 50 to 500 nM

## Cc1cc(C)nc(CCn2cc([C@@H]3C[C@]4(C[C@H](C)N3)OC[C@@H](O)c3cc(Cl)sc34)nn2)c1 [Compound 235]
[1]
  IC90: 50 to 500 nM
[2]
  Multi-Tox Assay Max Activity (%): 100.0%

## C[C@H]1C[C@@]2(C[C@@H](c3cn(Cc4n[nH]c5ccccc45)nn3)N1)OCC(F)(F)c1cc(Cl)sc12 [Compound 349]
[1]
  IC90: > 500 nM
[2]
  Multi-Tox Assay Max Activity (%): 91.0%

## Cc1nc([C@@H]2C[C@]3(C[C@H](C)N2)OCCc2cc(Cl)sc23)co1 (racemic) [Compound 104]
[1]
  IC90: 50 to 500 nM
[2]
  Multi-Tox Assay Max Activity (%): 99.3%

## C[C@H]1C[C@@]2(C[C@@H](c3cn(Cc4cccc(O)c4)nn3)N1)OCC(F)(F)c1cc(Cl)sc12 [Compound 320]
[1]
  IC90: > 500 nM
[2]
  Multi-Tox Assay Max Activity (%): 95.0%

## C[C@H]1C[C@@]2(C[C@@H](c3ccc(O)nc3)N1)OCCc1cc(Cl)sc12 (racemic) [Compound 68]
[1]
  IC90: < 50 nM
[2]
  Emax: 99.7%

## C[C@H]1C[C@@]2(C[C@@H](c3cn(CCCS(C)(=O)=O)nn3)N1)OCC(F)(F)c1cc(Cl)sc12 [Compound 344]
[1]
  IC90: 50 to 500 nM

## C[C@H]1C[C@@]2(C[C@@H](c3cn(CC4CCS(=O)(=O)C4)nn3)N1)OCC(F)(F)c1cc(Cl)sc12 (stereo partly drawn) [Compound 307]
[1]
  IC90: 50 to 500 nM

## C[C@H]1C[C@@]2(C[C@@H](c3cnn(C)c3)N1)OCCc1cc(Cl)sc12 [Compound 19, (2S)-2-chloro-2'-methyl-6'-(1-methylpyrazol-4-yl)spiro[4,5-dihydrothieno[2,3-c]pyran-7,4'-piperidine]]
[1]
  IC90: < 50 nM
[2]
  Emax: 99.3%

## C[C@H]1C[C@@]2(C[C@@H](c3cccc(C#N)n3)N1)OCCc1cc(Cl)sc12 (racemic) [Compound 53]
[1]
  IC90: < 50 nM
[2]
  Multi-Tox Assay Max Activity (%): 99.3%

## C[C@H]1C[C@@]2(C[C@@H](c3cn(CC#N)nn3)N1)OC[C@@H](O)c1cc(Cl)sc12 [Compound 255]
[1]
  IC90: 50 to 500 nM
[2]
  Multi-Tox Assay Max Activity (%): 100.0%

## CCc1cc2c(s1)C1(CC(C)NC(c3cn(C)nn3)C1)OCC2 (single isomer, unassigned) [Compound 6]
[1]
  IC90: < 50 nM
[2]
  Emax: 99.7%

## Cc1coc([C@@H]2C[C@]3(C[C@H](C)N2)OCCc2cc(Cl)sc23)n1 (racemic) [Compound 155]
[1]
  IC90: > 500 nM
[2]
  Multi-Tox Assay Max Activity (%): 95.2%

## C[C@H]1C[C@@]2(C[C@@H](c3ccc(S(N)(=O)=O)cc3F)N1)OCCc1cc(Cl)sc12 (racemic) [Compound 78]
[1]
  IC90: < 50 nM
[2]
  Emax: 99.7%

## COCC1CC2(CC(c3cn(C)nn3)N1)OCCc1cc(C(F)(F)F)sc12 (stereo not drawn) [Compound 193]
[1]
  IC90: 50 to 500 nM
[2]
  Emax: 99%

## C[C@@H]1CC2(C[C@H](C)N1)OCCc1cc(Br)sc12 (single isomer, unassigned) [Compound 197]
[1]
  IC90: 50 to 500 nM
[2]
  Emax: 99%

## C[C@H]1C[C@@]2(C[C@@H](c3cnn4c3OCCC4)N1)OCCc1cc(Cl)sc12 (racemic) [Compound 163]
[1]
  IC90: > 500 nM
[2]
  Multi-Tox Assay Max Activity (%): 92.7%

## COCCOCCn1cc([C@@H]2C[C@]3(C[C@H](C)N2)OC[C@@H](O)c2cc(Cl)sc23)nn1 [Compound 229]
[1]
  IC90: 50 to 500 nM
[2]
  Multi-Tox Assay Max Activity (%): 98.0%

## C[C@H]1C[C@@]2(C[C@@H](c3cn(C)c(=O)n(C)c3=O)N1)OCCc1cc(Cl)sc12 (racemic) [Compound 124]
[1]
  IC90: 50 to 500 nM
[2]
  Multi-Tox Assay Max Activity (%): 99.3%

## C[C@H]1C[C@@]2(C[C@@H](c3cnn(CCO)c3)N1)OCCc1cc(Cl)sc12 (racemic) [Compound 56]
[1]
  IC90: < 50 nM
[2]
  Multi-Tox Assay Max Activity (%): 99.8%

## C[C@H]1C[C@@]2(C[C@@H](c3cn(Cc4cccc5c4OCCO5)nn3)N1)OC[C@@H](O)c1cc(Cl)sc12 [Compound 268]
[1]
  IC90: 50 to 500 nM

## C[C@H]1CC2(C[C@H](C)N1)OCCc1sc(C(F)(F)F)cc12 (stereo partly drawn) [Compound 195]
[1]
  IC90: > 500 nM
[2]
  Emax: 76%

## Cc1nc2c([C@@H]3C[C@]4(C[C@H](C)N3)OCCc3cc(Cl)sc34)cccc2o1 (racemic) [Compound 170]
[1]
  IC90: > 500 nM
[2]
  Multi-Tox Assay Max Activity (%): 89.7%
